Measured values published in US10881641B2, “Methods and use of compounds that bind to RelA of NF-kB” (Cedars-Sinai Medical Center, priority 2015, dated 2021).
“Also recorded” adds a separate entry of the source.

What was measured:
[1] = tested on: triple-negative breast cancer cell lines; test: cell proliferation by calorimetric assay (MTT); type: cell-based; settings: FIG. 1A
breast cancer cells = test: anchorage independent growth assay (colony formation, clonogenic survival); type: cell-based; settings: 15 uM CRL1101 added after 24 hours, 14 days, soft agarose, FIG. 1B
Method: The effects of CRL1101 on clonogenic survival were analyzed. Base layers consisting of growth medium containing 0.53% low-melting point agarose (Invitrogen) were poured onto 6-well plates and allowed to solidify. Cells were seeded at concentration of 10000/well in triplicate in top layers consisting of growth medium containing 0.32% agarose. After 24 hours, 15, uM of CRL1101 was added. Cells were incubated for 14 days to form visible colonies. The colonies were fixed and stained by 0.05% Crystal violet in 50% methanol.

RelA(p65) = target: T1, RelA(p65) (Homo sapiens, UniProt Q04206); test: nuclear localization of RelA by immunofluorescent staining; type: cell-based; settings: TNBC cell lines, 20 mM CRL1101 in 1% DMSO, 45 minutes, FIG. 2
T1 construct: endogenous in cells
Method: Cells were grown in Dulbecco's modified Eagle medium supplemented with 10% heat-inactivated fetal calf serum and 1% (w/v) penicillin/streptomycin (all purchased from Mediatech Inc, Manassas, Va., USA). Cells were treated with or without 20 mM of CRL1101 in 1% DMSO. Forty five minutes after treatment, cells were fixed with 4% formaldehyde for 10 min and sequentially treated with 0.1% Triton X 100 for 10 min. Cells were blocked in 1% BSA in PBS for 10 min. cells were incubated with anti-Re/A(p65) antibody (1:150, Abeam, Cambridge, UK) in PBS with 1% BSA overnight at 4° C. and a secondary antibody (1:1000 anti-rabbit Alexa 488, Invitrogen, Carlsbad, Calif., USA) for 1 hr in the dark. Analyses were performed using a microscope (Nikon ECLIPSE Ti-U, Nikon, Tokyo, JAPAN).

MDA-MB-231 cells = test: xenograft breast cancer model, tumor growth; type: in vivo, athymic mice; settings: 25 mg/kg/day IP for 4 weeks, compared to vehicle, N=6, FIG. 3
Method: Mice were administrated 25 mg/kg/day of CRL1101 or vehicle IP, as indicated by arrows. Results are given as mean tumor volume +− s.e. […] N=6. Therapeutic efficacy of CRL1101 was tested in xenograft breast cancer model. Briefly, triple-negative breast cancer cells, MDA-MB-231 were used to grow tumor in athymic mice. Mice were treated with 25 mg/kg/day, IP for 4 weeks. The control group was treated with vehicle.

T1 sequence (Q04206 whole entry): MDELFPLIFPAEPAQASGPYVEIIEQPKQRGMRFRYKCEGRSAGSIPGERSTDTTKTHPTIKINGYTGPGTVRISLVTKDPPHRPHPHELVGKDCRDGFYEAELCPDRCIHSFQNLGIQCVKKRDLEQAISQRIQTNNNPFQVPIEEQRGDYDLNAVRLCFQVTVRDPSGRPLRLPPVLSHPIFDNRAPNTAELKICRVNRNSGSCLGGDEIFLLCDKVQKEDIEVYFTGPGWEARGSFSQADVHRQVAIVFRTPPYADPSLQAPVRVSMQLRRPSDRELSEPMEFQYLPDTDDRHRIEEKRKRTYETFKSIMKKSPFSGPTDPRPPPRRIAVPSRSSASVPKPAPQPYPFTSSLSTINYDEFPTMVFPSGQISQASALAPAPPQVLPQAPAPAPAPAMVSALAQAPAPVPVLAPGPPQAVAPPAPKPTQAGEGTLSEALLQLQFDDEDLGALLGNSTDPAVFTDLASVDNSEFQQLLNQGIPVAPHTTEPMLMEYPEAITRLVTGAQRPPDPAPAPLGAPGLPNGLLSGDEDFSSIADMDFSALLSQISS

- IC50 ([1]; all the three TNBC cell lines, MTT, read-out: IC50, inhibition of TNBC cell line proliferation): 20 µM
- nuclear localization of RelA (RelA(p65)): significantly inhibited
SMILES: Cl.O=[N+]([O-])c1cc(S(=O)(=O)CCCN2CCOCC2)ccc1F [CRL1101]
- cell proliferation ([1]; breast cancer cells): significantly inhibited
- colony formation (breast cancer cells): significantly inhibited
- tumor growth (mean tumor volume) (MDA-MB-231 cells): significant reduction in tumor growth; also recorded: significant (p<0.001) compared to vehicle
